Laboratory results taken from US20220233503A1, “METHODS OF TREATING SEPSIS WITH SYNAPTIC VESICLE 2A AND/OR 2B BINDING CHEMICAL ENTITIES” (INSTITUT PASTEUR, priority 2016, published 2022).

Columns and labels:
[1] = test system: CLP mice; test: Survival after cecal ligature and puncture (CLP) sepsis; assay type: in vivo, C57Bl/6 mice; conditions: 300 mg/Kg intraperitoneously, within the first four days, placebo 53%, n=212, p<0.001
Procedure: Cecal ligature and puncture: Cecal ligature and puncture on mice were performed under general anesthesia. Briefly, C57Bl/6 mice were anesthetized with an intraperitoneal injection of Xylazine (20 mg/Kg, Rompun 2%, Bayer, Leverkusen, Germany), and Ketamine (100 mg/Kg, Imalgene, Mérial, Lyon, France) in 100 μl of saline solution at 0.9%. After anesthetic administration, mice were placed in a heated cage or surgical table upon awakening to maintain a body temperature at 37° C. Absence of reaction to leg and tail pinch were checked before incision of abdominal wall and peritoneum. Caecum was found with wet cotton swabs and exposed before loose ligation with Mersilk 4.0 (Ethicon, Cincinatti, USA), 2 transfixiant punctures were realized avoiding blood vessels with a 21G needle. Feces were expressed between cotton swabs before suturing abdominal muscles and peritoneum in 2 separate plans.
Analgesia and rehydration of mice were performed with buprenorphine (0.1 mg/Kg, Buprecare, Axience, Pantin, France) every 12 hours until complete recovery. […] Clinical scoring: Sepsis severity was evaluated twice a day until day 4, or normalization of «sepsis score», a previously described score that ranges from 1 to 12. […] Each item was scored 0 or 1, with a total score rang from 0 (normal) to 12 (highly severe). […]

[2] = test system: pro- and anti-inflammatory cytokine levels in Serum; test: Cytokine multiplex in serum after sepsis; assay type: in vivo, mice; conditions: 24 hours after sepsis induction
Procedure: Cytokine multiplex: Brain samples were weighed and unfrosted in 100 μl of extraction buffer (PBS 1×, complete protease inhibitor, sigma-aldrich, triton 0.1%) processed in 2 ml Lysing Matrix A tubes with FastPrep-24 (MP biomedicals, Germany). Tubes were centrifuged at 20000 g at 4° C. and supernatant was collected and protein concentration was determined with light absorbance at 280 nm using a Nanodrop Lite Spectrophotometer (Thermo Scientific). Sera were used undiluted. Cytokines were measured using a Bio-Plex System and Mouse Cytokine Standard 23-Plex Group 1 kit following manufacturer's recommendations. Raw datas were analyzed by dividing the concentration of cytokine with protein concentration in lyzate and weight of sample measured on precision balance. Then every cytokine concentrations are presented as a ratio compared to the untreated sepsis group.

[3] = test system: pro- and anti-inflammatory cytokine levels in brain parenchyma; test: Cytokine multiplex in brain parenchyma after sepsis; assay type: in vivo, mice; conditions: 24 hours after sepsis induction
Procedure: Cytokine multiplex: Brain samples were weighed and unfrosted in 100 μl of extraction buffer (PBS 1×, complete protease inhibitor, sigma-aldrich, triton 0.1%) processed in 2 ml Lysing Matrix A tubes with FastPrep-24 (MP biomedicals, Germany). Tubes were centrifuged at 20000 g at 4° C. and supernatant was collected and protein concentration was determined with light absorbance at 280 nm using a Nanodrop Lite Spectrophotometer (Thermo Scientific). […] Cytokines were measured using a Bio-Plex System and Mouse Cytokine Standard 23-Plex Group 1 kit following manufacturer's recommendations. Raw datas were analyzed by dividing the concentration of cytokine with protein concentration in lyzate and weight of sample measured on precision balance. Then every cytokine concentrations are presented as a ratio compared to the untreated sepsis group.

[4] = test system: CD11b positive cells (microglial cells); test: mRNA expression of M1/M2 markers and cytokines in sorted CD11b positive cells after sepsis; assay type: in vivo, mice
Procedure: RNA Purification: Total brains or mircodissected brain under binoccular magnifier were collected in liquid nitrogen and stored at −80° C. before processing. Tissues were unfrosted in 1 ml of Qiazol (Qiagen, Nederland) and shredded using a TissueLyzer II and metallic beads (Qiagen, Nederland). Two hundred microlitters of chloroform (Merck, Darmstadt, Deutschland) were added before spinning for 15′ at 4° C.-20 000 rpm. The upper aqeuous phase was collected and purified using RNEasy Minikit with a DNAse step (Qiagen, Nederland) to remove any remaining genomic DNA. Purified RNA were quantified and a reverse transcription on 500 ng of RNA using SuperScript® II Reverse Transcriptase (Life Technologies) was realized. Quantitative real time polymerase chain reaction was performed on 10 ng cDNA with SYBR® Select Master Mix (Roche, Franche) following manufacturer's recommandation on a StepOne™ Real-Time PCR System (Life Technologies) and results were analyzed on StepOne softwares. Triplicates with a Cycle Threshold standard deviation <0.2 were considered for further analyzes. ΔΔCT method was used to quantify fold increases between animals from different groups to control group mean. The following primers were used.
Datas are presented as mean±SEM compared to septic placebo group set at 1.

[5] = test system: primary murine microglial cells; test: Cytokine transcription in LPS-activated primary microglial cells; assay type: cell-based, C57/B16 mice; conditions: for increase of TNFalpha gene expression: p<0.0001; for IL6 gene expression: 24 hours
Excerpt: (§1) NO: 53) and anti-sense primer:[…] NO: 54). […] ID NO: 55) and anti-sense primer […] NO: 56). […] NO: 57) and anti-sense primer:[…] NO: 58).

[6] = test system: primary murine microglial cells; test: Pro- and anti-inflammatory marker transcription in primary microglial cells exposed to LPS; assay type: cell-based, C57/B16 mice; conditions: primary microglial cells after LPS exposure
Excerpt: as §1

[7] = test system: murine primary monocytic cells; test: Nitric Oxide production in primary monocytic cells exposed to LPS; assay type: cell-based; conditions: activated murine monocytic cells, LPS 10 μg/mL, cell culture supernatant, dose effect relationship
Procedure: LPS exposure increased NO production at a dose of 10 μg/mL after 24 exposure in cell culture supernatant.

[8] = cited from earlier work
[9] = CD11b positive cells, 24 hours after sepsis, vs placebo

CC[C@@H](C(N)=O)N1CCCC1=O (single isomer, unassigned) [levetiracetam]
survival rate [1]: 81%
cytokine concentration in plasma [2]: No significant effect
TNF alpha in brain parenchyma (multiplex) ([3]; sepsis group treated): could not be detected
IL4 concentration in brain parenchyma (multiplex) ([3]; vs septic mice receiving saline): increased
CD32 transcription [4, 9]: increased
CD86 transcription [4, 9]: increased
Il 1 beta transcription [4, 9]: increased
MCP 1 transcription [4, 9]: increased
anti inflammatory markers transcription [4, 9]: not increased
microglial cell polarization ([4]; microglial cell sorting in whole brain of septic mice): polarized towards a pro-inflammatory (M1) phenotype
increase of TNFalpha gene expression ([5]; high LPS (10 ng/mL), high dose levetiracetam (100 micrograms/mL), [0.86-0.30]): 0.58
decrease of TNFalpha gene expression ([5]; high LPS (10 ng/mL), low dose levetiracetam (10 micrograms/mL), [0.10-0.66], p<0.01): 0.38
IL6 gene expression ([5]; high-dose LPS (10 ng/mL), high-dose levetiracetam (100 micrograms/mL), [0.25-0.97], p<0.001): 0.61 fold
IL1 beta expression ([5]; in vitro, activated microglial cell or not): No effect
increase of TNFalpha gene expression ([5]; low LPS (1 ng/mL), low levetiracetam (10 micrograms/mL), [0.82-0.26]): 0.53
IL6 gene expression ([5]; low-dose LPS challenge (1 ng/mL)): did not modify
expression of anti and proinflammatory markers [6]: modified
production of Nitric Oxide [7]: reduced
solubility in acetonitrile ([8]; acetonitrile): 5.7 g/100 mL
solubility in chloroform ([8]; chloroform): 65.3 g/100 mL
solubility in ethanol ([8]; ethanol): 16.5 g/100 mL
solubility in methanol ([8]; methanol): 53.6 g/100 mL
solubility in n-hexane ([8]; n-hexane): practically insoluble
solubility in water ([8]; water): 104.0 g/100 mL
